Legend:
[1] = tested on: M-001 melanoma cells; assay: Melanoma tumor progression in Zebra fish larvae; type: in vivo, zebrafish; conditions: for Melanoma tumor progression index (tumor size × metastasis), Mean: 72 hours of growth
Description: Zebra fish larvae (FIG. 3A) allow direct visualization of injected tumor cell growth and metastasis (collectively tumor progression) using fluorescently label tumor cells. At this developmental stage both the zebra fish immune system and gut microbiome are immature or lacking. Co-injection of exogenous tumor infiltrating lymphocytes (ex-TILS) allows the separate study of immune surveillance in the absence of a microbiome.
(§1) The toxicity screening period covered the first 72 hours of development. The efficacy evaluation of Axelopran was made using M-001 melanoma cells and matching TILs. Two-day old zebrafish embryos were subcutaneously injected into the perivitelline space with approximately 700 M-001 cells labelled with Dil red fluorescent dye and intravenously injected with TILs with or without pembrolizumab antibody. At the same time, MOR-antagonist test doses were added to the water. Following an additional 72 hours of further development, the fish were assayed for tumor growth (size of original tumor implant) and metastasis disseminated to the distal caudal venous plexus (CVP) three days after implantation.
The testing described above was repeated studying the effects of various doses of axelopran (0, 50 nM, 100 nM, 500 nM, and 1000 nM) alone, pembrolizumab alone, or pembrolizumab in combination with axelopran. The results of this testing are shown in FIG. 7, which depicts a summary of melanoma tumor progression (tumor size×#metastasis) in the presence of increasing axelopran concentrations or the checkpoint inhibitor pembrolizumab. For experiments using pembrolizumab, exogenous tumor-infiltrating lymphocytes (TILs) were also injected. The additional controls included the effect of TILs alone and with axelopran (500 nM) and pembrolizumab and TILs alone and with axelopran (500 nM). *=<0.05, **=<0.005, ***=<0.0005.

[2] = tested on: Mouse pancreatic tumor cells (PAN02 cells); assay: Syngeneic mouse pancreatic cancer model; type: in vivo, mice (C57BL6)
Description: Mouse pancreatic tumor cells (PAN02 cells), maintained in RPMI 1640 media supplemented with 10% FBS and 2 mmol/L L-glutamine, were amplified in vitro prior to implantation. On the day of injection, cells were harvested, counted including a trypan blue viability dye (cut-off 80%), and resuspended in PBS at the appropriate concentration. The cells (5×10^6 in 200 μL PBS) were injected subcutaneously in the right flank of Female mice (C57BL6), 5 weeks of age (18-22 gm body weight) within 30 minutes after harvesting. After 9 days of tumor growth, mice were randomized into treatment groups at 10 animals/group. Treatments included vehicle (PBS), axelopran given as 1 mg/kg, p.o. daily, mouse anti-PD-1 given as 12.5 mg/kg i.p., 3x/week and axelopran plus mouse anti-PD-1. Animals were weighed thrice weekly and tumor growth measured using callipers as described previously for the colon cancer experiments.

[3] = tested on: chicken CD3, MMD and CD244; assay: Immune cell infiltration into CAM breast cancer tumors (RT-qPCR); type: in vivo; conditions: axelopran used in the presence of bevacizumab and pembrolizumab
Description: Infiltration of host immune cells into the tumor environment is required for host reduction of tumor progression. Among the tumors collected at E18, after tumor weighing, 10 tumors per group (n=10) were used for RNA extraction, in 6 groups (Gr. 1, 2, 3, 4, 7, and 8). After that, extracted RNA was analyzed by RT-qPCR with specific primers for chicken CD3, MMD and CD244 sequences. For all points done in qPCR, expression of human GAPDH was also analyzed, as reference gene expression, and used to normalize immune biomarker expression between samples. Calculation of Cq for each sample, mean Cq and relative amounts of immune cells for each group were directly managed by the Bio- Rad CFX Maestro software (see FIG. 11).
The infiltration of chicken CD3^+, CD244^+, and MMD^+ immune cells into breast cancer tumors grown on the upper CAM in the presence of axelopran, pembrolizumab, bevacizumab and combinations are shown in FIG. 11.

[4] = tested on: Zebra fish larvae; assay: Zebra fish larvae mortality in combination therapy study; type: in vivo, zebrafish
Description: as §1
For study investigating combination therapy, the Zebra fish larvae mortality was also investigated.

[5] = tested on: Zebra fish larvae; assay: Zebra fish larvae toxicity screen; type: in vivo, zebrafish; conditions: doses up to 100 μM in incubation water
Description: Transgenic Tg(fli1: EGFP)y1 zebrafish embryos were used for these studies. The results of this testing are shown in FIG. 4A and FIG. 4B, which show Zebra fish larvae survival up to 72 hours in the presence of increasing axelopran concentration in the incubation water.
Based on the toxicity screening, for tumor progression analysis, doses up to 10 μM were utilized.
as §1

[6] = tested on: blood vessels reaching MDA-MB-231 tumor on the CAM; assay: Chicken egg chorioallantoic membrane (CAM) tumor angiogenesis, blood vessel count; type: in vivo; conditions: 0.1, 0.5, 1.0 mg/kg; absence of exogenous opioids
Description: Two independent model systems were used to explore the role of MOR and endogenous opioids on angiogenesis. Human umbilical vein endothelial cells (HUVEC) in culture initiate angiogenesis through tube formation when cultured on an appropriate extracellular matrix. In a living system, the chicken egg chorioallantoic membrane assay (CAM) allows direct visualization of new blood vessel formation.
Furthermore, a chicken egg chorioallantoic membrane assay was conducted to determine blood vessel formation in the presence of increasing MOR antagonist (axelopran) concentrations (0, 0.1, 0.5, 1.0 mg/kg). Docetaxel was used as a control. For the testing CAM membranes were incubated in the presence of the MOR antagonist or docetaxel under the following conditions: Fertilized White Leghorn eggs were incubated at 37.5° C. with 50% relative humidity for 9 days. At that moment (E9), the CAM was dropped down by drilling a small hole through the eggshell into the air sac, and a 1 cm window was cut in the eggshell above the CAM. At least 20 eggs (depending on embryo surviving rate after 9 days of development, there could be more than 20 eggs per group) were grafted for each group. […] The number of blood vessels that reach the tumor and feed the tumor proliferation were counted in triplicate to evaluate tumor angiogenesis. […]

[7] = tested on: M-001 melanoma cells; assay: Melanoma tumor progression in Zebra fish larvae; type: in vivo, zebrafish; conditions: Axelopran 10000 nM, 72 hours of growth
[8] = absence of exogenous opioids, melanoma

Question: How did the metastasis ([1]; 10 μM axelopran vs vehicle control) turn out when `NC(=O)c1cccc(C2CC3CCC(C2)N3CCN(CC2CCCCC2)C(=O)[C@@H](O)CO)c1` (stereo partly drawn) [axelopran, 3-[(1R,3r,5S)-8-(2-{(cyclohexylmethyl)[(2S)-2,3-dihydroxypropanoyl]amino}ethyl)-8-azabicyclo[3.2.1]octan-3-yl]benzamide] was run?
Answer: significantly reduced metastasis

Question: What about the “Melanoma tumor progression index (tumor size × metastasis), Mean” value (“Melanoma tumor progression index” for short) ([1]; Axelopran 100 nM) of the same molecule?
Answer: 5.71

Question: What about the “Melanoma tumor progression index” value ([1]; Axelopran 500 nM +TILS) of the same molecule?
Answer: 2.73

Question: And the “Melanoma tumor progression index” value ([1]; Axelopran 500 nM)?
Answer: 3.62

Question: What about the “Melanoma tumor progression index” value ([1]; Axelopran 1000 nM) of the same molecule?
Answer: 1.85

Question: And the “interaction of axelopran activity with anti-PD-1 treatment” value ([1]; absence of a microbiome, melanoma)?
Answer: additive

Question: What about the metastasis [1, 8] of the same molecule?
Answer: inhibits metastasis

Question: And the tumor growth [1, 8]?
Answer: inhibits tumor growth

Question: And the “distribution of tumor volumes” value ([2]; compared to animals not treated with axelopran)?
Answer: lower and more uniform

Question: What about the “inhibition of tumor progression” value ([2]; day 23, axelopran 1 mg/kg p.o. daily, mouse anti-PD-1 12.5 mg/kg i.p. 3x/week) of the same molecule?
Answer: most prominent

Question: What about the “infiltration of CD3+ lymphocytes, CD244+ natural killer cells and MMD+ macrophages into the tumor tissue” value [3] of the same molecule?
Answer: synergistically enhanced the infiltration

Question: What about the “Zebra fish larvae mortality” value ([4]; axelopran added with TILS and TILS plus pembrolizumab) of the same molecule?
Answer: significantly reduced this mortality

Question: And the “Zebra fish larvae mortality” value ([4]; axelopran alone, 72-hour period after exposure at 48 hours post-fertilization)?
Answer: no significant mortality

Question: What about the abnormal pathology [5] of the same molecule?
Answer: limited abnormal pathology

Question: And the larvae death [5]?
Answer: did not result in larvae death

Question: What about the “survival and development of pathological lesions” value ([5]; up to 72 hours) of the same molecule?
Answer: no different that the vehicle control

Question: And the “angiogenesis (blood vessel formation, CAM)” value [6]?
Answer: inhibit angiogenesis

Question: What about the “Melanoma tumor progression index” value [7] of the same molecule?
Answer: 2.41
